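Five compound concentrations were applied to cells in 96-well plates for 48 hours; endpoints were derived by simple linear interpolation of the resulting dose-response curve. The concentration for full growth arrest is given as TGI.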
Columns and labels:
Test in all cases: growth of human tumour cells (NCI), 48 h
786-0 renal = tested on: 786-0 renal
A498 renal = tested on: A498 renal
A549 NSCLC = tested on: A549 NSCLC
ACHN renal = tested on: ACHN renal
BT-549 breast = tested on: BT-549 breast
CAKI-1 renal = tested on: CAKI-1 renal
CCRF-CEM leukemia = tested on: CCRF-CEM leukemia
COLO 205 colon = tested on: COLO 205 colon
DU-145 prostate = tested on: DU-145 prostate
EKVX NSCLC = tested on: EKVX NSCLC
HCC-2998 colon = tested on: HCC-2998 colon
HCT-116 colon = tested on: HCT-116 colon
HCT-15 colon = tested on: HCT-15 colon
HL-60(TB) leukemia = tested on: HL-60(TB) leukemia
HOP-62 NSCLC = tested on: HOP-62 NSCLC
HOP-92 NSCLC = tested on: HOP-92 NSCLC
HS 578T breast = tested on: HS 578T breast
HT29 colon = tested on: HT29 colon
IGROV1 ovarian = tested on: IGROV1 ovarian
K-562 leukemia = tested on: K-562 leukemia
KM12 colon = tested on: KM12 colon
LOX IMVI melanoma = tested on: LOX IMVI melanoma
M14 melanoma = tested on: M14 melanoma
MALME-3M melanoma = tested on: MALME-3M melanoma
MCF7 breast = tested on: MCF7 breast
MDA-MB-231 breast = tested on: MDA-MB-231 breast
MDA-MB-435 = tested on: MDA-MB-435
MDA-N = tested on: MDA-N
MOLT-4 leukemia = tested on: MOLT-4 leukemia
NCI-H226 lung = tested on: NCI-H226 lung
NCI-H23 lung = tested on: NCI-H23 lung
NCI-H460 lung = tested on: NCI-H460 lung
NCI-H522 lung = tested on: NCI-H522 lung
NCI/ADR-RES ovarian = tested on: NCI/ADR-RES ovarian
OVCAR-3 ovarian = tested on: OVCAR-3 ovarian
OVCAR-4 ovarian = tested on: OVCAR-4 ovarian
OVCAR-5 ovarian = tested on: OVCAR-5 ovarian
OVCAR-8 ovarian = tested on: OVCAR-8 ovarian
PC-3 prostate = tested on: PC-3 prostate
RPMI-8226 leukemia = tested on: RPMI-8226 leukemia
RXF 393 renal = tested on: RXF 393 renal
SF-268 CNS = tested on: SF-268 CNS
SF-295 CNS = tested on: SF-295 CNS
SF-539 CNS = tested on: SF-539 CNS
SK-MEL-2 melanoma = tested on: SK-MEL-2 melanoma
SK-MEL-28 melanoma = tested on: SK-MEL-28 melanoma
SK-MEL-5 melanoma = tested on: SK-MEL-5 melanoma
SK-OV-3 ovarian = tested on: SK-OV-3 ovarian
SN12C renal = tested on: SN12C renal
SNB-19 CNS = tested on: SNB-19 CNS
SNB-75 CNS = tested on: SNB-75 CNS
SR leukemia = tested on: SR leukemia
SW-620 colon = tested on: SW-620 colon
T-47D breast = tested on: T-47D breast
TK-10 renal = tested on: TK-10 renal
U251 CNS = tested on: U251 CNS
UACC-257 melanoma = tested on: UACC-257 melanoma
UACC-62 melanoma = tested on: UACC-62 melanoma

## COc1cc([C@@H]2c3cc4c(cc3[C@@H](Nc3ccc(N=Cc5ccc(C(=O)O[C@@H](C(=O)O[C@H]6C[C@@]7(O)[C@@H](OC(=O)c8ccccc8)[C@@H]8[C@]9(OC(C)=O)CO[C@@H]9C[C@H](O)[C@@]8(C)C(=O)[C@H](OC(C)=O)C(=C6C)C7(C)C)[C@@H](NC(=O)c6ccccc6)c6ccccc6)cc5)cc3)[C@H]3COC(=O)[C@H]23)OCO4)cc(OC)c1O
786-0 renal
  TGI: 9.53 µM
A498 renal
  TGI: 4.48 µM
A549 NSCLC
  TGI: > 50 µM
ACHN renal
  TGI: 10.5 µM
BT-549 breast
  TGI: > 50 µM
CAKI-1 renal
  TGI: 14.4 µM
CCRF-CEM leukemia
  TGI: 11 µM
COLO 205 colon
  TGI: > 50 µM
DU-145 prostate
  TGI: 17.2 µM
EKVX NSCLC
  TGI: > 50 µM
HCC-2998 colon
  TGI: > 50 µM
HCT-116 colon
  TGI: > 50 µM
HCT-15 colon
  TGI: > 50 µM
HL-60(TB) leukemia
  TGI: 9.73 µM
HOP-62 NSCLC
  TGI: > 40.2 µM
HOP-92 NSCLC
  TGI: > 50 µM
HS 578T breast
  TGI: > 50 µM
HT29 colon
  TGI: > 50 µM
IGROV1 ovarian
  TGI: > 50 µM
K-562 leukemia
  TGI: > 22.5 µM
KM12 colon
  TGI: > 50 µM
LOX IMVI melanoma
  TGI: > 50 µM
M14 melanoma
  TGI: > 50 µM
MALME-3M melanoma
  TGI: > 50 µM
MCF7 breast
  TGI: > 50 µM
MDA-MB-231 breast
  TGI: > 50 µM
MDA-MB-435
  TGI: > 50 µM
MDA-N
  TGI: > 50 µM
MOLT-4 leukemia
  TGI: 10.5 µM
NCI-H226 lung
  TGI: 29.3 µM
NCI-H23 lung
  TGI: > 38.9 µM
NCI-H460 lung
  TGI: 15.9 µM
NCI-H522 lung
  TGI: > 50 µM
NCI/ADR-RES ovarian
  TGI: > 50 µM
OVCAR-3 ovarian
  TGI: > 50 µM
OVCAR-4 ovarian
  TGI: > 50 µM
OVCAR-5 ovarian
  TGI: > 39.1 µM
OVCAR-8 ovarian
  TGI: > 50 µM
PC-3 prostate
  TGI: > 50 µM
RPMI-8226 leukemia
  TGI: 28.2 µM
RXF 393 renal
  TGI: > 50 µM
SF-268 CNS
  TGI: > 45.6 µM
SF-295 CNS
  TGI: > 27.7 µM
SF-539 CNS
  TGI: > 47.3 µM
SK-MEL-2 melanoma
  TGI: > 50 µM
SK-MEL-28 melanoma
  TGI: > 50 µM
SK-MEL-5 melanoma
  TGI: > 42.9 µM
SK-OV-3 ovarian
  TGI: > 35.8 µM
SN12C renal
  TGI: 17.2 µM
SNB-19 CNS
  TGI: > 50 µM
SNB-75 CNS
  TGI: 37.2 µM
SR leukemia
  TGI: 0.35 µM
SW-620 colon
  TGI: > 50 µM
T-47D breast
  TGI: > 50 µM
TK-10 renal
  TGI: > 50 µM
U251 CNS
  TGI: 35.4 µM
UACC-257 melanoma
  TGI: > 50 µM
UACC-62 melanoma
  TGI: > 50 µM
